Measurements from patent US6521654B2, “Substituted imidazolidine derivatives, their preparation, their use and pharmaceutical preparations including them” (Aventis Pharma Deutschland GmbH, priority 1997, dated 2003).

Target: T1, interaction between VCAM-1 and VLA-4 (Homo sapiens, UniProt P05556+P13612)
T1 construct: supplied in their natural form as surface molecules on human U937 cells; host or cells: U937 cells carry endogenous VLA-4; The partner hVCAM-1(1-3)-IgG was made in house in transfected COS cells (ATCC CRL1651) and used as culture supernatant
T1 sequence (P13612 34-1032): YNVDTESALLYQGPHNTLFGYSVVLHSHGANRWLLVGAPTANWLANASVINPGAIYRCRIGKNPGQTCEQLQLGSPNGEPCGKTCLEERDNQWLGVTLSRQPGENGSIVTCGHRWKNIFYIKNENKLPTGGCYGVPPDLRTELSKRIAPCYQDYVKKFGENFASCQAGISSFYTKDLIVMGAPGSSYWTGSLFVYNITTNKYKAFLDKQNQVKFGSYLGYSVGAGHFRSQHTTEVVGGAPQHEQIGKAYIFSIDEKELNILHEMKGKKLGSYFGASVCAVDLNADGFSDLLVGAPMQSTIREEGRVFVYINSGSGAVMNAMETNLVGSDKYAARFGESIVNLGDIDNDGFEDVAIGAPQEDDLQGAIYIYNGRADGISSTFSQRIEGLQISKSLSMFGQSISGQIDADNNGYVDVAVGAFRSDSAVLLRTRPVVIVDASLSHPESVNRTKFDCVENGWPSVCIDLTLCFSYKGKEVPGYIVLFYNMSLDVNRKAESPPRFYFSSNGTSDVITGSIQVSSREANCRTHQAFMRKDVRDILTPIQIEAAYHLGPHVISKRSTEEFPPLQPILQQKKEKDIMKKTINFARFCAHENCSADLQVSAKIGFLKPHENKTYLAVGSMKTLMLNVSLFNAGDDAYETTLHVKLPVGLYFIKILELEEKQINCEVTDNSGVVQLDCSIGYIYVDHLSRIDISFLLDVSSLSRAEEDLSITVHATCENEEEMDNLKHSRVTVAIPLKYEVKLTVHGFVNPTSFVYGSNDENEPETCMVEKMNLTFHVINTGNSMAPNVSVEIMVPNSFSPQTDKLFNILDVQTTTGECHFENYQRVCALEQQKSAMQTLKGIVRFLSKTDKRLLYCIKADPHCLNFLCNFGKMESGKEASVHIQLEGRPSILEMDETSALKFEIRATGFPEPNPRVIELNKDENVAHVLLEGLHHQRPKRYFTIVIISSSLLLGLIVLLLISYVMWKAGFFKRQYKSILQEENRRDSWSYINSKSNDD
T1 sequence (P05556 21-798): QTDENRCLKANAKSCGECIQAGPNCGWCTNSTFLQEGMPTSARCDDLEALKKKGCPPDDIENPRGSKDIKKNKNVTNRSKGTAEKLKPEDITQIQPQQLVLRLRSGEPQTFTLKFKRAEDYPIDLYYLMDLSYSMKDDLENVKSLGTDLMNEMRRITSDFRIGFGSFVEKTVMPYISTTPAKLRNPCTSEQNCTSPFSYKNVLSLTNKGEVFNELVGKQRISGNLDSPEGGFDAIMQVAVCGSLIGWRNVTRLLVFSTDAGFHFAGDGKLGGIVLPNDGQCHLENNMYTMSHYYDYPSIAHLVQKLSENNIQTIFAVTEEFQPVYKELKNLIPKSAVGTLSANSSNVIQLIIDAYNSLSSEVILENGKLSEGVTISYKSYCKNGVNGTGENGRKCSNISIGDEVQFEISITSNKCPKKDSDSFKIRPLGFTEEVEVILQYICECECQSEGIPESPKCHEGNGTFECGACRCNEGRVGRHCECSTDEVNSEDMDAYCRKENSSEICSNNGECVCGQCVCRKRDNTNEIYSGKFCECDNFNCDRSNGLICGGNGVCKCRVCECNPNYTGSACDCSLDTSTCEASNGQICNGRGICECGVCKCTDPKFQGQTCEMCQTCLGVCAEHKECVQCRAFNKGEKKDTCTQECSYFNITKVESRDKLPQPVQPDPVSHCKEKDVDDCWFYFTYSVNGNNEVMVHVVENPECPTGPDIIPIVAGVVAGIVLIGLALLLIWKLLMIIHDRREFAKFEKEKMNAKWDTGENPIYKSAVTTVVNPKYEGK
Test: U937/VCAM-1 cell adhesion test (adhesion of U937 cells to hVCAM-1(1-3)-IgG)
Type: cell-based
Details: concentration leading to 50% inhibition of adhesion of human U937 cells (ATCC CRL 1593) to hVCAM-1(1-3)-IgG
Text: The test method used for the activity of the compounds of the formula I on the interaction between VCAM-1 and VLA-4 is the assay described below which is specific for this interaction. The cellular binding components, i.e., the VLA-4 integrins, are supplied in their natural form as surface molecules on human U937 cells (ATCC CRL 1593). which belong to the leucocytes group. The specific binding components used are genetically engineered recombinant soluble fusion proteins, consisting of the extracytoplasmatic domain of human VCAM-1 and the constant region of a human immunoglobulin of the subclass IgG1.
Assay for the Measurement of the Adhesion of U937 Cells (ATCC CRL 1593) to hVCAM-1(1-3)-IgG
1. Preparation of Human VCAM-1 (1-3)-IgG and Human CD4-IgG
A genetic construct for the expression of the extracellular domain of human VCAM-1, associated with the genetic sequence of the heavy chain of human immunoglobulin IgG1 (hinge, CH2 and CH3 regions), from Dr. Brian Seed, Massachusetts General Hospital. Boston, USA was employed (cf. Damle and Aruffo, Proc. Natl. Acad. Sci. USA 1991, 88, 6403-6407). The soluble fusion protein hVCAM-1(1-3)-IgG contained the three amino-terminal extracellular immunoglobulin-like domains of human VCAM-1 (Damle and Aruffo, Proc. Natl. Acad. Sci. USA 1991, 88, 6403-6407). CD4-IgG (Zettimeissl et al., DNA and Cell Biology 1990, 9, 347) served as a fusion protein for negative controls. The recombinant proteins were expressed as soluble proteins after DEAE/dextran-mediated DNA transfection in COS cells (ATCC CRL1651) according to standard procedures (Ausubel et al., Current Protocols in Molecular Biology, John Wiley & Sons, Inc., 1994).
2. Assay for the Measurement of the Adhesion of U937 Cells to hVCAM-1 (1-3)-IgG
2.1 96-well microtiter test plates (Nunc Maxisorb) were incubated at room temperature for 1 hour with 100 μl/well of a goat-anti-human IgG antibody solution (10 μg/ml in 50 mM tris, pH 9.5). After removal of the antibody solution, washing was carried out once with PBS.
2.2 150 μl/well of a blocking buffer (1% BSA in PBS) were incubated on the plates at room temperature for 0.5 hour. After removal of the blocking buffer, washing was carried out once with PBS.
2.3 100 μl per well of a cell culture supernatant of transfected COS cells were incubated on the plates at room temperature for 1.5 hours. The COS cells were transfected with a plasmid which codes for the three N-terminal immunoglobulin-like domains of VCAM-1, coupled to the Fc part of human IgG1 (hVCAM-1 (1-3)-IgG). The content of hVCAM-1 (1-3)-IgG was about 0.5-1 μg/ml. After removal of the culture supernatant, washing was carried out once with PBS.
2.4 The plates were incubated at room temperature for 20 minutes with 100 μl/well of Fc receptor blocking buffer (1 mg/ml of γ-globulin, 100 mM NaCl, 100 μM MgCl2, 100 μM MnCl2, 100 μM CaCl2, 1 mg/ml of BSA in 50 mM HEPES, pH 7.5). After removal of the Fc receptor blocking buffer, washing was carried out once with PBS.
2.5 20 μl of binding buffer (100 mM NaCl, 100 μM MgCl2, 100 μM MnCl2, 100 μM CaCl2, 1 mg/ml of BSA in 50 mM HEPES, pH 7.5) were initially introduced, and the substances to be tested were added in 10 μl of binding buffer and incubated for 20 minutes. The controls used were antibodies against VCAM-1 (BBT, No. BBA6) and against VLA-4 (immunotech, No. 0764).
2.6 U937 cells were incubated in Fc receptor blocking buffer for 20 minutes and then added by pipette in a concentration of 1×10^6/ml and in an amount of 100 μl per well ([…]).
2.7 The plates were slowly immersed at an angle of 45° in stop buffer (100 mM NaCl, 100 μM MgCl2, 100 μM MnCl2, 100 μM CaCl2 in 25 mM tris, pH 7.5) and shaken off. The process was repeated.
2.8 50 μl/well of a dye solution (16.7 μg/ml of Hoechst Dye 33258, 4% formaldehyde, 0.5% triton X-100 in PBS) were then incubated on the plates for 15 minutes. […]

| IC50 [nM] | SMILES |
| --- | --- |
| 15 | COc1ccc(C(CC(=O)O)NC(=O)C(CC(C)C)N2C(=O)N(Cc3ccc(NC(=O)Nc4ccccc4C)cc3)C(C)(c3ccccc3)C2=O)cc1 (stereo not shown) [Example 193] |
| 50 | Cc1ccccc1NC(=O)Nc1ccc(CN2C(=O)N(C(CC(C)C)C(=O)NC(CC(=O)O)c3ccc(F)cc3)C(=O)C2(C)c2ccccc2)cc1 (stereo not shown) [Example 192] |
| 1.6 | COc1ccc([C@H](CC(=O)O)NC(=O)[C@H](CC(C)C)N2C(=O)N(Cc3ccc(NC(=O)Nc4ccccc4C)cc3)C(C)(C)C2=O)c(OC)c1 [Example 188] |
| 0.85 | Cc1ccccc1NC(=O)Nc1ccc(CN2C(=O)N([C@@H](CC(C)C)C(=O)N[C@@H](CC(=O)O)C(=O)N[C@H](C(=O)O)c3ccccc3)C(=O)C2(C)C)cc1 [Example 47, ((S)-2-(4,4-Dimethyl-3-(4-(3-(2-methylphenyl)ureido)benzyl)-2,5-dioxoimidazolidin-1-yl)-2-(2-methylpropyl)acetyl)-L-aspartyl-L-phenylglycine] |
| 23 | CCCCS(=O)(=O)NC(CNC(=O)C(CC(C)C)N1C(=O)N(Cc2ccc(NC(=O)Nc3ccccc3C)cc2)C(C)(c2ccccc2)C1=O)C(=O)O (racemic) [Example 195, (RS)-2-Butylsulfonylamino-3-((RS)-2-((RS)-4-methyl-4-phenyl-3-(4-(3-(2-methyl-phenyl)ureido)benzyl)-2,5-dioxoimidazolidin-1-yl)-2-(2-methylpropyl)acetylamino)propionic Acid] |
| 25 | Cc1ccccc1NC(=O)Nc1ccc(CN2C(=O)N([C@@H](CC(C)C)C(=O)NC(CC(=O)O)c3ccccc3)C(=O)C2(C)C)cc1 (mixture of isomers) [Example 196, (RS)-3-((S)-2-(4,4-Dimethyl-3-(4-(3-(2-methylphenyl)ureido)benzyl)-2,5-dioxoimidazolidin-1-yl)-2-(2-methylpropyl)acetylamino)-3-phenylpropionic Acid] |
| 2.9 | Cc1ccccc1NC(=O)Nc1ccc(CN2C(=O)N([C@@H](CC(C)C)C(=O)N[C@@H](CC(=O)O)c3cccc4ccccc34)C(=O)C2(C)C)cc1 [Example 186] |
| 8 | COc1ccc(C(CC(=O)O)NC(=O)C(CC(C)C)N2C(=O)N(Cc3ccc(NC(=O)Nc4ccccc4C)cc3)C(C)(c3ccccc3)C2=O)cc1OC (stereo not shown) [Example 190] |
| 50 | COc1ccc([C@H](CC(=O)O)NC(=O)C(CC(C)C)N2C(=O)N(Cc3ccc(NC(=O)Nc4ccccc4C)cc3)C(C)(c3ccccc3)C2=O)c(OC)c1 (mixture of isomers) [Example 189, (S)-3-((RS)-2-((RS)-4-Methyl-4-phenyl-3-(4-(3-(2-methylphenyl)ureido)benzyl)-2,5-dioxoimidazolidin-1-yl)-2-(2-methylpropyl)acetylamino)-3-(2,4-dimethoxyphenyl)propionic Acid] |
| 450 | Cc1ccccc1NC(=O)Nc1ccc(CN2C(=O)N(C(CC(C)C)C(=O)NC(CC(=O)O)c3ccc(CC(C)C)cc3)C(=O)C2(C)c2ccccc2)cc1 (stereo not shown) [Example 194] |
| 1.5 | Cc1ccccc1NC(=O)Nc1ccc(CN2C(=O)N([C@@H](CC(C)C)C(=O)N[C@@H](CC(=O)O)C(=O)N[C@H](C(=O)N3CCC[C@H]3C(=O)O)C(C)C)C(=O)C2(C)C)cc1 [Example 133, ((S)-2-(4,4-Dimethyl-3-(4-(3-(2-methylphenyl)ureido)benzyl)-2,5-dioxoimidazolidin-1-yl)-2-(2-methylpropyl)acetyl)-L-aspartyl-L-valyl-L-proline] |
| 13 | CC(C)C[C@@H](C(=O)N[C@@H](CC(=O)O)C(=O)N[C@H](C(=O)O)c1ccccc1)N1C(=O)N(Cc2ccc(NC(=O)Nc3ccc(F)cc3)cc2)C(C)(C)C1=O [Example 49] |
| 25 | COc1cccc(C(CC(=O)O)NC(=O)C(CC(C)C)N2C(=O)N(Cc3ccc(NC(=O)Nc4ccccc4C)cc3)C(C)(c3ccccc3)C2=O)c1OC (stereo not shown) [Example 201] |

The remaining lines, values behind:

| SMILES | IC50 [nM] |
| --- | --- |
| Cc1ccccc1NC(=O)Nc1ccc(CN2CC(=O)N(CC(=O)N[C@@H](CC(=O)O)C(=O)NC3C4CC5CC(C4)CC3C5)C2=O)cc1 (stereo partly shown) [Example 21] | 520 |
| Cc1cccc(C)c1NC(=O)Nc1ccc(CN2C(=O)N(CC(=O)N[C@@H](CC(=O)O)c3ccccc3)C(=O)C2(C)C)cc1 [Example 42] | 470 |
| CC(C)C[C@@H](C(=O)N[C@H](C)CC(=O)O)N1C(=O)N(Cc2ccc(NC(=O)Nc3ccccc3)cc2)C(C)(C)C1=O [Example 6, (R)-3-((S)-2-(4,4-Dimethyl-3-(4-(3-phenylureido)benzyl)2,5-dioxoimidazolidin-1-yl)-2-(2-methylpropyl)acetylamino)-3-methylpropionic Acid] | 30 |
| CC(C)C[C@@H](C(=O)N[C@@H](CC(=O)O)C(=O)NC1C2CC3CC(C2)CC1C3)N1C(=O)N(Cc2ccc(NC(=O)Nc3ccccc3)cc2)C(C)(C)C1=O (stereo partly shown) [Example 25] | 6 |
| Cc1ccccc1NC(=O)Nc1ccc(CN2C(=O)N(CC(=O)NCCC(=O)O)C(=O)C2(C)C)cc1 [Example 15, 3-(2-(4,4-Dimethyl-3-(4-(3-(2-methylphenyl)ureido)benzyl)-2,5-dioxoimidazolidin-1-yl)acetylamino)propionic Acid] | 30 |
| CCc1cccc(C)c1NC(=O)Nc1ccc(CN2C(=O)N(CC(=O)N[C@@H](CC(=O)O)c3ccccc3)C(=O)C2(C)C)cc1 [Example 41] | 1470 |
| CC1(C)C(=O)N(CC(=O)N[C@@H](CC(=O)O)C(=O)NC2C3CC4CC(C3)CC2C4)C(=O)N1Cc1ccc(NC(=O)Nc2ccccc2)cc1 (stereo partly drawn) [Example 24, (2-(4,4-Dimethyl-3-(4-(3-phenylureido)benzyl)-2,5-dioxoimidazolidin-1-yl)-acetyl)-L-(2-adamantyl)aspartamide] | 6 |
| Cc1ccccc1NC(=O)Nc1ccc(CN2C(=O)N([C@@H](CC(C)C)C(=O)N[C@@H](CC(=O)O)c3ccc4c(c3)OCO4)C(=O)C2(C)C)cc1 [Example 7, (S)-3-((S)-2-(4,4-Dimethyl-3-(4-(3-(2-methylphenyl)ureido)benzyl)-2,5-dioxoimidazolidin-1-yl)-(2-methylpropyl)acetylamino)-3-(3,4-methylenedioxyphenyl)propionic Acid] | 2.5 |
| Cc1ccccc1NC(=O)Nc1ccc(CN2C(=O)N([C@@H](CC(C)C)C(=O)NCC(=O)O)C(=O)C2(C)C)cc1 [Example 10, 2-((S)-2-(4,4-Dimethyl-3-(4-(3-(2-methylphenyl)ureido)benzyl)-2,5-dioxoimidazolidin-1-yl)-2-(2-methylpropyl)acetylamino)acetic Acid] | 600 |
| CN(C(=O)CN1C(=O)N(Cc2ccc(NC(=O)Nc3ccccc3)cc2)C(C)(C)C1=O)[C@@H](CC(=O)O)C(=O)NC1C2CC3CC(C2)CC1C3 (stereo partly shown) [Example 23] | 16 |
| Cc1ccc(NC(=O)Nc2ccc(CN3C(=O)N(CC(=O)N[C@@H](CC(=O)O)c4ccccc4)C(=O)C3(C)C)cc2)c(C)c1 [Example 43] | 740 |
| C[C@H](CC(=O)O)NC(=O)CN1C(=O)CN(Cc2ccc(NC(=O)Nc3ccccc3Cl)cc2)C1=O [Example 30, (R)-3-(2-(3-(4-(3-(2-Chlorophenyl)ureido)benzyl)-2,5-dioxoimidazolidin-1-yl)-acetylamino)-3-methylpropionic Acid] | 580 |
